Experimental data published in publication PMC4047925 (Journal of Agricultural and Food Chemistry, 2014).

Assay: hydroxyl radical-scavenging assay
Type: biochemical
Settings: ED50 <20 μM considered active

SMILES	hydroxyl radical scavenging ED50 (concentration scavenging hydroxyl radical by 50%) [µM]
O=c1c(O)c(-c2ccc(O)c(O)c2)oc2cc(O)cc(O)c12 [quercetin, reference compound]	1.3
COC(=O)C(C)n1c(C=O)ccc1CO (stereo not drawn) [Compound 1, methyl 2-[2-formyl-5-(hydroxymethyl)-1H-pyrrol-1-yl]propanoate]	16.7
CC(=O)c1ccc(O)cn1 [Compound 6, 5-hydroxy-2-pyridyl methyl ketone]	>20
